Results taken from US20260207648A1, “NOVEL SMALL MOLECULE KRAS INHIBITOR: DRUGGING UNDRUGGABLE TARGETS FOR CANCER THERAPEUTICS” (PILLAI UNIVERSAL LLC, priority 2022, published 2026).
Like-named read-outs stand apart in the source and are kept apart here.

Columns and labels:
Control cell lines = experiment: Cell-cycle regulation and apoptosis in control cell lines; assay type: cell-based; conditions: control cell lines compared with KRAS Mutated cell lines
[1] = system: PANC-1, MIA PaCa-2, NCIH1975, A549 (K-Ras G12S mutant), NCI-H1299 (N-Ras Q61K mutant); experiment: Cellular proliferation of Ras wild type/mutant cell lines; assay type: cell-based; conditions: Homo sapiens; range over all tested cell lines
Description: The inhibition of compounds COMPOUND I on the cellular proliferation of […] cell lines were measured: The three cell lines in the signaling studies (PANC-1, MIA PaCa-2, NCIH1975), and the non-small cell lung cancer lines A549 (K-Ras G12S mutant) and NCI-H1299 (N-Ras Q61K mutant). FIG. 7 and IC50 values measured in these studies. […] Consistent with the notion that these compounds are pan-Ras superfamily inhibitors, it is reasonable to speculate that they can inhibit pathways downstream of several members of the Rassuperfamily.

[2] = system: Bcl-2, Bax, caspase-9, caspase-3, PARP; experiment: Western blotting of apoptosis-related proteins; assay type: cell-based; conditions: western blot
Description: (§1) To confirm that COMPOUND I induced cell apoptosis, DNA fragmentation assay, was performed. […] Furthermore, the expression levels of proteins related to apoptosis and cell cycle progression by western blotting were examined. Cells were treated with COMPOUND I at different concentrations and total proteins were isolated. Beta-Actin was used as an internal control. […] The effect of drugs on the cleavage of procaspase 9 and procaspase 3 were examined. […] Caspase-3 is a key regulator of mitochondrial dependent and independent apoptotic pathways and activation of caspase-3 leads to cleavage of several substrates including PARP.

[3] = system: MCF7, HT-29, HEP G2, A549; experiment: Cell viability (MTT assay) on human adenocarcinoma cell lines; assay type: cell-based; conditions: 48 hours, 250 to 0.97 nmol/L
Description: (§2) Several cell lines including human breast carcinoma (MCF7), colon adenocarcinoma (HT-29), Liver adenocarcinoma (HEP G2), Lung adenocarcinoma (A549) were treated with a range of COMPOUND I for 48 hours and the percentage of cell viability was determined by MTT assay. The average total viable cells were precisely calculated and anti-proliferative effects were determined. […] The drug were also tested on normal monkey Kidney epithelial cells.

apoptosis = experiment: DNA fragmentation assay / apoptosis quantitation; assay type: cell-based
Description: as §1

KRAS Mutated cell lines = experiment: Flow cytometry cell cycle distribution; assay type: cell-based
Description: (§3) Flow cytometry analysis was performed to verify whether COMPOUND I induced apoptosis was related to cell cycle arrest. Cell cycle distribution in KRAS Mutated cell lines was quantified after treatment with different COMPOUND I concentrations. […] Therefore, it was attempted to determine whether COMPOUND I treatment also can influence the expression level of G1/S phase cell cycle regulatory proteins.

MEK, Erk1/2 and Akt = experiment: Inhibition of Ras downstream pathways (summary over readouts and cell lines); assay type: cell-based; conditions: Homo sapiens; PANC-1, MIA PaCa-2 and NCI-H1975; read-out: IC50 phosphorylation and activation of MEK, Erk1/2 and Akt
Description: (§4) The inhibitory effects of compounds COMPOUND I was tested on Ras-associated signal transduction pathways in three different human cell lines: the pancreatic cell-lines PANC-1 (K-Ras G12D mutant), MIA PaCa-2 (K-Ras G12C mutant), and the non-small cell lung cancer cell-line NCI-H1975 (KRas WT). FIG. 8 illustrate the inhibitory effects of COMPOUND I on phosphorylation and activation of MEK, Erk1/2 and Akt in those three cell lines. […] In contrast, the IC50s of compound COMPOUND I on the phosphorylation and activation of MEK and Erk1/2 were approximately 2 μM in PANC-1 and MIA PaCa-2 and 3 μM in NCI-H1975; and, of Akt, were approximately 5 μM in PANC-1 and MIA PaCa-2 and 5 μM in NCIH1975 (FIG. 8).

Ras-GTP complex = experiment: Ras pull-down assay; assay type: cell-based, human; conditions: PANC-1, MIA PaCa-2 and NCIH1975; read-out: IC50 Ras-GTP complex formation
Description: As a follow up to the downstream assays, the ability of COMPOUND I was also measured to inhibit Ras-GTP complex formation in the three tested cell-lines (PANC-1, MIA PaCa-2 and NCIH1975) using a Ras pull-down assay. […] These values correlate well with the IC50 values obtained for the inhibition of MEK, Erk1/2 and Akt phosphorylation presented in FIGS. 2 and 3.

MEK = experiment: Inhibition of Ras downstream pathways: MEK phosphorylation; assay type: cell-based; conditions: Homo sapiens, read-out: IC50 phosphorylation and activation of MEK
Description: as §4

[4] = system: p53, p21, p27, Cyclin B, cdc2, CDK2, CDK4, CDK6, Cyclin D1, Cyclin D3, pRb; experiment: Protein levels of cell cycle regulatory proteins; assay type: cell-based
Description: as §3

Erk1/2 = experiment: Inhibition of Ras downstream pathways: Erk1/2 phosphorylation; assay type: cell-based; conditions: Homo sapiens, read-out: IC50 phosphorylation and activation of Erk1/2
Description: as §4

[5] = system: normal monkey Kidney epithelial cells; experiment: MTT cytotoxicity on normal cells; assay type: cell-based; conditions: normal monkey Kidney epithelial cells versus cancer cell lines
Description: as §2

Akt = experiment: Inhibition of Ras downstream pathways: Akt phosphorylation; assay type: cell-based; conditions: Homo sapiens, read-out: IC50 phosphorylation and activation of Akt
Description: as §4

Akt, mTOR, ERK = experiment: Akt/mTOR/ERK pathway activation; assay type: cell-based
Source text: In order to better understand the molecular basis of COMPOUND I induced cell cycle arrest and apoptosis, the expression of Akt and mTOR was investigated with various concentrations of COMPOUND I. Akt/mTOR is an important cell survival pathway and activated Akt inhibits apoptosis leading to cell survival. […] Additionally, it was examined whether COMPOUND I effect involved ERK signaling pathway and found the decreased activation of ERK.

IC50 [1]: 450 to 1200 nM
IC50 (MEK, Erk1/2 and Akt): 1000 to 3000 nM
IC50 (Ras-GTP complex): 2000 to 3000 nM
IC50 (MEK; MIA PaCa-2 (K-Ras G12C mutant)): ~2000 nM
IC50 (MEK; NCI-H1975 (KRas WT)): ~3000 nM
IC50 (MEK; PANC-1 (K-Ras G12D mutant)): ~2000 nM
IC50 (Erk1/2; MIA PaCa-2 (K-Ras G12C mutant)): ~2000 nM
IC50 (Erk1/2; NCI-H1975 (KRas WT)): ~3000 nM
IC50 (Erk1/2; PANC-1 (K-Ras G12D mutant)): ~2000 nM
IC50 (Akt; NCI-H1975, NCIH1975 (KRas WT)): ~5000 nM
IC50 (Akt; MIA PaCa-2 (K-Ras G12C mutant)): ~5000 nM
IC50 (Akt; PANC-1 (K-Ras G12D mutant)): ~5000 nM
Structure (SMILES): COc1cc(C(C)=O)ccc1C(=O)COP(=O)(O)OP(=O)(O)OP(=O)(O)OCC1OC(n2cnc3c(=O)[nH]c(Nc4ccc(O)cc4)nc32)C(O)C1O (centres unmarked) [COMPOUND I]
changes in cell-cycle regulation and apoptosis (Control cell lines): better protected
cleavage of PARP into 116 kDa and 84 kDa fragment [2]: induced the cleavage of PARP
cleavages of procaspase 9 and procaspase 3 [2]: induced in a dose-dependent manner
expression of Bcl-2 ([2]; dose dependent): down regulated
expression of proapoptotic proteins Bax, caspase-9 and caspase-3 ([2]; dose dependent): induced expression
proliferation / cell viability [3]: inhibited the proliferation of all the cell lines in a dose-dependent manner
DNA fragmentation (ladder pattern in agarose gels) (apoptosis; 48 hours, all concentrations tested): lead to DNA fragmentation
apoptosis (quantitative analysis) (apoptosis; treated cells): significant increase of apoptosis
cells showing G1/S phase arrest (KRAS Mutated cell lines): 23.98%
number of cells in the G2/M phase (KRAS Mutated cell lines): 76.89%
expression levels of p21, p27 and p53 ([4]; KRAS Mutated cell lines): Greater expression levels
expression levels of CDK4, CDK6, Cyclin D1, Cyclin D3, pRb ([4]; dose-dependent): decreased significantly
expression levels of Cyclin B, cdc2, CDK2 ([4]; dose-dependent): decreased significantly
sensitivity to induced cytotoxicity [5]: less sensitive
total Akt and mTOR levels (Akt, mTOR, ERK): remained constant
phosphorylation of Akt and mTOR (Akt, mTOR, ERK; Serine 473 and Serine 2448, concentration-dependent): suppressed
phosphorylation of ERK (Akt, mTOR, ERK; Threonine 202 and Tyrosine 204): suppressed
